Measured values published in the RepoRT retention time repository.

assay: RP, Thermo Scientific Hypersil GOLD, 200 × 2.1 mm, 1.9 µm, 40 °C, 0.4 mL/min, estimated dead time 1.1 min; A: water + 0.2% formic acid; B: acetonitrile; gradient (min/%B) 0/10 0.5/10 22/100 30/100 30.2/10 35/10; conditions: stereoisomer not certain

Compound	LC retention time [min]
O=c1ccc2ccc(O)cc2o1 [7-hydroxycoumarin]	5.43
CC1(C(=O)O)CCC2(C)CCC3(C)C(=CC(=O)C4C5(C)CCC(O)C(C)(C)C5CCC43C)C2C1 (stereo not drawn) [18beta-glycyrrhetinic acid]	16.6
CC(C)C1=CC2=CCC3C(C)(C(=O)O)CCCC3(C)C2CC1 (centres undefined) [abietic acid]	19.3
CC1CCC2C(C)C3C(CC4C5CC=C6CC(OC7OC(CO)C(OC8OC(C)C(O)C(O)C8O)C(O)C7OC7OC(C)C(O)C(O)C7O)CCC6(C)C5CCC43C)N2C1 (stereo not drawn) [alpha-chaconine]	7.97
CC1CCC2C(C)C3C(CC4C5CC=C6CC(OC7OC(CO)C(O)C(OC8OC(CO)C(O)C(O)C8O)C7OC7OC(C)C(O)C(O)C7O)CCC6(C)C5CCC43C)N2C1 (stereo not drawn) [alpha-solanine]	7.91
CC1CCC2(C(=O)O)CCC3(C)C(=CCC4C5(C)CC(O)C(O)C(C)(CO)C5CCC43C)C2C1C (centres undefined) [asiatic acid]	12.7
C=C(C)C1CCC2(C(=O)O)CCC3(C)C(CCC4C5(C)CCC(O)C(C)(C)C5CCC43C)C12 (centres undefined) [betulinic acid]	18.8
COc1ccc(C2CC(=O)c3c(O)cc(OC4OC(COC5OC(C)C(O)C(O)C5O)C(O)C(O)C4O)cc3O2)cc1O (centres undefined) [hesperetin 7-rutinoside]	6.39
COc1ccc(C2CC(=O)c3c(O)cc(O)cc3O2)cc1O (centres undefined) [hesperetin]	9.3
COc1cc(-c2oc3cc(O)cc(O)c3c(=O)c2O)ccc1O [isorhamnetin]	9.25
CC1OC(OCC2OC(Oc3c(-c4ccc(O)cc4)oc4cc(O)cc(O)c4c3=O)C(O)C(O)C2O)C(O)C(O)C1O (centres undefined) [kaempferol 3-rutinoside]	5.64
O=c1c(O)c(-c2ccc(O)cc2)oc2cc(O)cc(O)c12 [kaempferol]	9.01
O=c1cc(-c2ccc(O)c(O)c2)oc2cc(O)cc(O)c12 [luteolin]	7.75
CC1OC(Oc2c(-c3ccc(O)c(O)c3)oc3cc(O)cc(O)c3c2=O)C(O)C(O)C1O (centres undefined) [quercetin 3-rhamnoside]	6.02
O=c1c(O)c(-c2ccc(O)c(O)c2)oc2cc(O)cc(O)c12 [quercetin]	7.8
COc1cc(CC(CO)C(CO)Cc2ccc(O)c(OC)c2)ccc1O (centres undefined) [secoisolariciresinol]	6.86
CC1CCC2(NC1)OC1CC3C4CCC5CC(OC6OC(CO)C(OC7OC(CO)C(O)C(OC8OCC(O)C(O)C8O)C7OC7OC(CO)C(O)C(O)C7O)C(O)C6O)CCC5(C)C4CCC3(C)C1C2C (centres undefined) [tomatin]	7.55

Continued, values first:

LC retention time [min]	Compound
12.2	O=C(C=Cc1ccc(O)c(O)c1)OCCc1ccccc1 [caffeic acid phenylethyl ester]
3.21	O=C(C=Cc1ccc(O)c(O)c1)OC1CC(O)(C(=O)O)CC(O)C1O (centres undefined) [chlorogenic acid]
1.6	O=C(O)c1cc(O)c(O)c(O)c1 [gallic acid]
6.61	COc1ccc(C2CC(=O)c3c(O)cc(OC4OC(CO)C(O)C(O)C4OC4OC(C)C(O)C(O)C4O)cc3O2)cc1O (centres undefined) [hesperetin 7-O-neohesperidoside]
2.46	OCCc1ccc(O)c(O)c1 [hydroxytyrosol]
7.24	COc1cc(CC2COC(c3ccc(O)c(OC)c3)C2CO)ccc1O (centres undefined) [lariciresinol]
3.86	COc1cc(-c2[o+]c3cc(O)cc(O)c3cc2OC2OC(CO)C(O)C(O)C2O)cc(OC)c1O (centres undefined) [malvidin 3-glucoside]
6.18	CC1OC(OC2C(Oc3cc(O)c4c(c3)OC(c3ccc(O)cc3)CC4=O)OC(CO)C(O)C2O)C(O)C(O)C1O (centres undefined) [naringenin 7-O-neohesperidoside]
8.88	O=C1CC(c2ccc(O)cc2)Oc2cc(O)cc(O)c21 (centres undefined) [naringenin]
7.05	CC=C1C(OC2OC(CO)C(O)C(O)C2O)OC=C(C(=O)OC)C1CC(=O)OCCc1ccc(O)c(O)c1 (centres undefined) [oleuropein]
5.04	O=C(O)/C=C/c1ccc(O)cc1 [p-coumaric acid]
4.21	O=C(C=Cc1ccc(O)cc1)OC1CC(O)(C(=O)O)CC(O)C1O (centres undefined) [p-coumarlyquinnic acid]
6.77	O=C(CCc1ccc(O)cc1)c1c(O)cc(O)cc1OC1OC(CO)C(O)C(O)C1O (centres undefined) [phloridzin]
2.41	O=C(O)c1ccc(O)c(O)c1 [protocatechuic acid]
5.07	CC1OC(OCC2OC(Oc3c(-c4ccc(O)c(O)c4)oc4cc(O)cc(O)c4c3=O)C(O)C(O)C2O)C(O)C(O)C1O (centres undefined) [quercetin 3-rutinoside]
6.25	O=c1c(O)c(-c2ccc(OC3OC(CO)C(O)C(O)C3O)c(O)c2)oc2cc(O)cc(O)c12 (centres undefined) [quercetin 4'-glucoside]
19.2	CC1CCC2(C(=O)O)CCC3(C)C(=CCC4C5(C)CCC(O)C(C)(C)C5CCC43C)C2C1C (centres undefined) [ursolic acid]
